Assay results as given in patent publication US7541368B2, “Pyrazoles as inhibitors of tumor necrosis factor” (Aventis Pharmaceuticals Inc., priority 2003, dated 2009).

Test system: TNF-alpha release in THP-1 cells
Experiment: LPS-induced TNF-alpha release in THP-1 cells
Type: cell-based
Details: Homo sapiens, THP-1, LPS-stimulated THP-1 cells; read-out: 50% inhibition in the LPS-induced TNF-alpha release in THP-1 cells assay at concentrations within the range
Method in brief: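 Undifferentiated THP-1 monocytes (1×10^6 cells/ml, 1% FCS) preincubated 1 h at 37° C with compound (1×10^−9 to 1×10^−6 M, 0.3% DMSO), then stimulated with LPS (20 μg/ml) for 18 h. Supernatant TNF-alpha measured by sandwich ELISA (TMB read-out), interpolated from a log/log standard curve (0.125-16 ng/ml).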

Row | Compound | IC50
1 | Cc1ccc(-n2nc(C(C)(C)C)cc2NC(=O)Nc2ccc(CC3CCN(C(=O)c4ccc5cc[nH]c5c4)CC3)cc2)cc1 [Compound A362, 1-(5-tert-Butyl-2-p-tolyl-2H-pyrazol-3-yl)-3-{4-[1-(1H-indole-6-carbonyl)-piperidin-4-ylmethyl]-phenyl}-urea] | 10 to 500 nM
2 | Cc1ccc(-n2nc(C(C)(C)C)cc2NC(=O)Nc2ccc(CC3CCN(C(=O)c4cccc(Nc5nc(C)cc(C)n5)c4)CC3)cc2)cc1 [Compound A371, 1-(5-tert-Butyl-2-p-tolyl-2H-pyrazol-3-yl)-3-(4-{1-[3-(4,6-dimethyl-pyrimidin-2-ylamino)-benzoyl]-piperidin-4-ylmethyl}-phenyl)-urea] | 10 to 500 nM
3 | Cc1ccc(-n2nc(C(C)(C)C)cc2NC(=O)Nc2ccc(CC3CCN(C(=O)c4ccccn4)CC3)cc2)cc1 [Compound A380, 1-(5-tert-Butyl-2-p-tolyl-2H-pyrazol-3-yl)-3-{4-[1-(pyridine-2-carbonyl)-piperidin-4-ylmethyl]-phenyl}-urea] | 10 to 500 nM
4 | Cc1ccc(-n2nc(C(C)(C)C)cc2NC(=O)Nc2ccc(CC3CCN(C(=O)c4ccc5ccccc5n4)CC3)cc2)cc1 [Compound A383, 1-(5-tert-Butyl-2-p-tolyl-2H-pyrazol-3-yl)-3-{4-[1-(quinoline-2-carbonyl)-piperidin-4-ylmethyl]-phenyl}-urea] | 10 to 500 nM
5 | Cc1ccc(-n2nc(C(C)(C)C)cc2NC(=O)Nc2ccc(CC3CCN(C(=O)c4cnc5ccccc5c4)CC3)cc2)cc1 [Compound A384, 1-(5-tert-Butyl-2-p-tolyl-2H-pyrazol-3-yl)-3-{4-[1-(quinoline-3-carbonyl)-piperidin-4-ylmethyl]-phenyl}-urea] | 10 to 500 nM
6 | Cc1ccc(-n2nc(C(C)(C)C)cc2NC(=O)Nc2ccc(CC3CCN(C(=O)c4ccnc5ccccc45)CC3)cc2)cc1 [Compound A385, 1-(5-tert-Butyl-2-p-tolyl-2H-pyrazol-3-yl)-3-{4-[1-(quinoline-4-carbonyl)-piperidin-4-ylmethyl]-phenyl}-urea] | 10 to 500 nM
7 | Cc1ccc(-n2nc(C(C)(C)C)cc2NC(=O)Nc2ccc(CC3CCN(C(=O)Cc4cccs4)CC3)cc2)cc1 [Compound A388, 1-(5-tert-Butyl-2-p-tolyl-2H-pyrazol-3-yl)-3-{4-[1-(2-thiophen-2-yl-acetyl)-piperidin-4-ylmethyl]-phenyl}-urea] | 10 to 500 nM
8 | Cc1ccc(-n2nc(C(C)(C)C)cc2NC(=O)Nc2ccc(CC3CCN(C(=O)Cc4ccsc4)CC3)cc2)cc1 [Compound A389, 1-(5-tert-Butyl-2-p-tolyl-2H-pyrazol-3-yl)-3-{4-[1-(2-thiophen-3-yl-acetyl)-piperidin-4-ylmethyl]-phenyl}-urea] | 10 to 500 nM
9 | CC(=O)c1ccc(NC(=O)N2CCC(Cc3cccc(NC(=O)Nc4cc(C(C)(C)C)nn4-c4ccc(C)cc4)c3)CC2)cc1 [Compound A403, 4-{3-[3-(5-tert-Butyl-2-p-tolyl-2H-pyrazol-3-yl)-ureido]-benzyl}-piperidine-1-carboxylic acid (4-acetyl-phenyl)-amide] | 10 to 500 nM
10 | Cc1ccc(-n2nc(C(C)(C)C)cc2NC(=O)Nc2ccc(CC3CCN(C(=O)Nc4ccc5c(c4)OCO5)CC3)cc2)cc1 [Compound A429, 4-{4-[3-(5-tert-Butyl-2-p-tolyl-2H-pyrazol-3-yl)-ureido]-benzyl}-piperidine-1-carboxylic acid benzo[1,3]dioxol-5-ylamide] | 10 to 500 nM
11 | Cc1ccc(-n2nc(C(C)(C)C)cc2NC(=O)Nc2ccc(CC3CCN(C(=O)Nc4ccc(N(C)C)cc4)CC3)cc2)cc1 [Compound A450, 4-{4-[3-(5-tert-Butyl-2-p-tolyl-2H-pyrazol-3-yl)-ureido]-benzyl}-piperidine-1-carboxylic acid (4-dimethylamino-phenyl)-amide] | 10 to 500 nM
12 | COc1ccc(OC)c(S(=O)(=O)N2CCC(Cc3ccc(NC(=O)Nc4cc(C(C)(C)C)nn4-c4ccc(C)cc4)cc3)CC2)c1 [Compound A564, 1-(5-tert-Butyl-2-p-tolyl-2H-pyrazol-3-yl)-3-{4-[1-(2,5-dimethoxy-benzenesulfonyl)-piperidin-4-ylmethyl]-phenyl}-urea] | 10 to 500 nM
13 | Cc1ccc(-n2nc(C(C)(C)C)cc2NC(=O)Nc2ccc(CC3CCN(S(=O)(=O)c4ccccc4Cl)CC3)cc2)cc1 [Compound A567, 1-(5-tert-Butyl-2-p-tolyl-2H-pyrazol-3-yl)-3-{4-[1-(2-chloro-benzenesulfonyl)-piperidin-4-ylmethyl]-phenyl}-urea] | 10 to 500 nM
14 | COc1ccc(C)cc1S(=O)(=O)N1CCC(Cc2ccc(NC(=O)Nc3cc(C(C)(C)C)nn3-c3ccc(C)cc3)cc2)CC1 [Compound A592, 1-(5-tert-Butyl-2-p-tolyl-2H-pyrazol-3-yl)-3-{4-[1-(2-methoxy-5-methyl-benzenesulfonyl)-piperidin-4-ylmethyl]-phenyl}-urea] | 10 to 500 nM
15 | CCS(=O)(=O)N1CCC(Cc2ccc(NC(=O)Nc3cc(C(C)(C)C)nn3-c3ccc(C)cc3)cc2)CC1 [Compound A606, 1-(5-tert-Butyl-2-p-tolyl-2H-pyrazol-3-yl)-3-[4-(1-ethanesulfonyl-piperidin-4-ylmethyl)-phenyl]-urea] | 10 to 500 nM
16 | COC(=O)c1ccccc1S(=O)(=O)N1CCC(Cc2ccc(NC(=O)Nc3cc(C(C)(C)C)nn3-c3ccc(C)cc3)cc2)CC1 [Compound A609, 2-(4-{4-[3-(5-tert-Butyl-2-p-tolyl-2H-pyrazol-3-yl)-ureido]-benzyl}-piperidine-1-sulfonyl)-benzoic acid methyl ester] | 10 to 500 nM
17 | COc1ccc2c(CC(=O)N3C4CCC3CC(Cc3cccc(NC(=O)Nc5cc(C(C)(C)C)nn5-c5ccc(C)cc5)c3)C4)coc2c1 (stereo not drawn) [Compound A618, 1-(5-tert-Butyl-2-p-tolyl-2H-pyrazol-3-yl)-3-(3-{8-[2-(6-methoxy-benzofuran-3-yl)-acetyl]-8-aza-bicyclo[3.2.1]oct-3-ylmethyl}-phenyl)-urea] | 10 to 500 nM
18 | Cc1ccc(-n2nc(C(C)(C)C)cc2NC(=O)Nc2cccc(CC3CC4CCC(C3)N4C(=O)Cc3cn(C)c4ccccc34)c2)cc1 (stereo not drawn) [Compound A641, 1-(5-tert-Butyl-2-p-tolyl-2H-pyrazol-3-yl)-3-(3-{8-[2-(1-methyl-1H-indol-3-yl)-acetyl]-8-aza-bicyclo[3.2.1]oct-3-ylmethyl}-phenyl)-urea] | 10 to 500 nM
19 | Cc1ccc(-n2nc(C(C)(C)C)cc2NC(=O)Nc2cccc(CC3CC4CCC(C3)N4C(=O)Cc3ccc(F)c(F)c3)c2)cc1 (stereo not drawn) [Compound A719, 1-(5-tert-Butyl-2-p-tolyl-2H-pyrazol-3-yl)-3-(3-{8-[2-(3,4-difluoro-phenyl)-acetyl]-8-aza-bicyclo[3.2.1]oct-3-ylmethyl}-phenyl)-urea] | 10 to 500 nM
20 | Cc1ccc(-n2nc(C(C)(C)C)cc2NC(=O)Nc2cccc(CC3CC4CCC(C3)N4C(=O)Cc3ccc(F)cc3F)c2)cc1 (stereo not drawn) [Compound A720, 1-(5-tert-Butyl-2-p-tolyl-2H-pyrazol-3-yl)-3-(3-{8-[2-(2,4-difluoro-phenyl)-acetyl]-8-aza-bicyclo[3.2.1]oct-3-ylmethyl}-phenyl)-urea] | 10 to 500 nM
21 | Cc1ccc(-n2nc(C(C)(C)C)cc2NC(=O)Nc2cccc(CC3CC4CCC(C3)N4C(=O)Cc3ccccc3F)c2)cc1 (stereo not drawn) [Compound A761, 1-(5-tert-Butyl-2-p-tolyl-2H-pyrazol-3-yl)-3-(3-{8-[2-(2-fluoro-phenyl)-acetyl]-8-aza-bicyclo[3.2.1]oct-3-ylmethyl}-phenyl)-urea] | 10 to 500 nM
